From patent publication US6410594B1, “Substituted cyclopentane compounds useful as neuraminidase inhibitors” (Biocryst Pharmaceuticals, Inc., priority 1996, dated 2002)

What was measured:
[1] = target: H1N9 Influenza Neuraminidase (Influenza A virus, UniProt P03472); assay: biochemical; set-up: species or system influenza virus (H1N9 strain); conditions: 10 min at 37° C.; read-out: Inhibition of H1N9 Influenza Neuraminidase IC50
H1N9 Influenza Neuraminidase, sequence (P03472 83-470 limits assumed): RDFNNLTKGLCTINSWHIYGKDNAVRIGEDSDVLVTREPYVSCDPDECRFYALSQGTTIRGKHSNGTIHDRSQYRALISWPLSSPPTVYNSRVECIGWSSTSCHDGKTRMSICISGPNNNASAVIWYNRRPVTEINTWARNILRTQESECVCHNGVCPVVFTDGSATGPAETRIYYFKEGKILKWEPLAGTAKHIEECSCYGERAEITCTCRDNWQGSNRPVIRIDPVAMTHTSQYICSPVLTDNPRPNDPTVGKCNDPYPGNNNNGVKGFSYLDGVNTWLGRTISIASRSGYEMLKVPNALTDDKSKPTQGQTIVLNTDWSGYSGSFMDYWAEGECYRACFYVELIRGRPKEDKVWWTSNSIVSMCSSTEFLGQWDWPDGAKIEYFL

Row | Structure (SMILES) | IC50 [1] | melting point
1 | CC(=O)NC(CO)[C@H]1CC(C(=O)O)C[C@@H]1NC(=N)N (single isomer, unassigned; isomer a) [Example 6, 4β-{[(Amino)(imino)methyl]amino}-3α-[(2-hydroxy-1-methylcarbonylamino)ethyl]-1-cyclo-pentancarboxylic acid (isomer A at C-6)] | 90 µM | 121 to 122 °C
2 | CON(C)C(=O)C(NC(C)=O)[C@H]1C[C@](O)(C(=O)O)C[C@@H]1NC(=N)N (some centres unmarked) [Example 19, c-3-{[(Amino)(imino)methyl]amino}-t-1-hydroxy-t-4{(methylcarbonylamino){[(methyl)-(methoxy)amino]carbonyl}methyl}cyclopentan-r-carboxylic acid trifluoroacetic acid (1:1)] | 16 µM | 160 to 216 °C
3 | CC(=O)NC(CO)[C@H]1CC(C(=O)O)C[C@@H]1NC(=N)N (single isomer, unassigned; isomer b) [Example 7, Sodium 3β-{[(amino)(imino)methyl]amino}-4α-[(2-hydroxy)(1-methylcarbonylamino)ethyl]-cyclopentan-r-carboxylate:diethylether:hydrate (12:4:3), isomer B] | 3800 µM | –
